For series [1], the target named is T1, And‐1 (Homo sapiens, UniProt O75717).
T1 construct: expressed in transfected cells
T1 sequence (O75717 1-1129): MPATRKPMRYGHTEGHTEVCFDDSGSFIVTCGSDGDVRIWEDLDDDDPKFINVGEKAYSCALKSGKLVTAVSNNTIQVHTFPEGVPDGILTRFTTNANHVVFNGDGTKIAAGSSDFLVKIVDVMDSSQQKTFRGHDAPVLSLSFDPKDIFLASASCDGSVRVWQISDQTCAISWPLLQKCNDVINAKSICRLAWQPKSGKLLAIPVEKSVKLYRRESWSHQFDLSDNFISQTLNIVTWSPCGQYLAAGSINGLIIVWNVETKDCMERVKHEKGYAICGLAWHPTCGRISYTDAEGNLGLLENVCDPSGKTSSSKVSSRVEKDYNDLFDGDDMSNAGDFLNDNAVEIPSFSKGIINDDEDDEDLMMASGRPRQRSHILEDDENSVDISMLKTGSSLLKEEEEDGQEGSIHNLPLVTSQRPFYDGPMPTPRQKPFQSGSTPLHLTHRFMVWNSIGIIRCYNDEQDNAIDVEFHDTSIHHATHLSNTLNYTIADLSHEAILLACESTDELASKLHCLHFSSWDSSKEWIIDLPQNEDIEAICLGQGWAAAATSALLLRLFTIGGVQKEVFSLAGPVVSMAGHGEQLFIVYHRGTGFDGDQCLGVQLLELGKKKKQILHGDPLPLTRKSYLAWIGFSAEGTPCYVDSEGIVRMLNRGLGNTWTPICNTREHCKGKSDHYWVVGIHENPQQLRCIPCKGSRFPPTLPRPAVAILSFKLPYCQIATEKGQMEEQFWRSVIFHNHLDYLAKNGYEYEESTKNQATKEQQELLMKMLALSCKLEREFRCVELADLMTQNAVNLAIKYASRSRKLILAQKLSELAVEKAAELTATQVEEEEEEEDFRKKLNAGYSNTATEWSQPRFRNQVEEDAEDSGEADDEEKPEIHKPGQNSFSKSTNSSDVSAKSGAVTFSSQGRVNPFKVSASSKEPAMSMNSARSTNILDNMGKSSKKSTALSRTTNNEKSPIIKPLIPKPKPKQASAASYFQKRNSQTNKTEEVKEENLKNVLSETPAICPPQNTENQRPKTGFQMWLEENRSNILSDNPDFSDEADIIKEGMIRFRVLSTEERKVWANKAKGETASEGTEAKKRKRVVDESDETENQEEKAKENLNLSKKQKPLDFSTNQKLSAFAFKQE
The series can be described thus: And‐1 luciferase reporter assay (qHTS of LOPAC). The class given is cell-based. As to the method: And‐1‐Luc reporter HEK293 cells were dispensed at 2000 cells/5 μl/well in tissue culture treated white wall/solid bottom 1536‐well plates (Greiner Bio‐One North America, Monroe, NC, USA) using a Thermo Scientific Multidrop Combi (ThermoFisher Scientific, Inc.). After the cells were incubated in assay plates at 37°C for 5 h, 23 nl of compounds (LOPAC) was transferred into the assay plates using a Wako Pintool station (Wako Automation, San Diego, CA, USA). The assay plates were incubated at 37°C for 48 h, followed by the addition of 5 μl ONE‐Glo luciferase reagent (Promega, Madison, WI, USA) using a Flying Reagent Dispenser (Aurora Discovery, Carlsbad, CA, USA). After 30 min of incubation at room temperature, the luminescence intensity of the assay plates was quantified using a ViewLux plate reader (PerkinElmer, Shelton, CT, USA).
(§1) To evaluate whether And‐1 is required for tumor survival, we examined the dependence of a broad range of tumor cells on And‐1 by using dependency score analysis from DepMap (https://depmap.org/portal/). […] To identify And‐1 specific pharmacologic inhibitor, we established an HTS assay to identify small molecules that can inhibit And‐1 by inducing its degradation. To this end, we first established two stable cell lines, HEK293T‐And‐1‐Luc expressing And‐1 protein fused to a luciferase reporter gene, and HEK293T‐Luc expressing luciferase only (Figure 1B). HEK293T‐And‐1‐Luc cells allow us to monitor And‐1 protein levels by measuring luciferase activity in a high‐throughput manner. Using these cell lines, we conducted a screening for And‐1 inhibitors against a LOPAC small molecule library by using a quantitative HTS (qHTS) as we described previously.[46]

For another series, the system named is IGROV1 CR cells. The series can be described thus: SRB cell viability assay, combination with cisplatin. Type of series: cell-based, human. The following applies: by combination index (CI < 1 synergism). As to the method: (§2) The assay was as previously described.[45]
Synergy of each combination was indicated as combination index (CI) values. […] (C) Tumors of IGROV1 CR xenograft treated with control (vehicle), cisplatin (8 mg/kg/day intraperitoneally), CH3 (20 mg/kg/3days intraperitoneally), or a combination of CH3 and cisplatin for 3 weeks. Ruler scale is in centimeters. (D) Growth curves of IGROV1 CR xenografts. […] (E) IHC staining against And‐1 antibodies of tumor samples from four treated groups of mice. Scale bar: 50 μm. […] Ruler scale is in centimeters. (G) Growth curves of IGROV1 CR xenografts. […] (H) IHC staining against And‐1 antibodies of tumor samples from four treated groups of mice. Scale bar: 50 μm.

The subject of series [2] is IGROV1 cells. The series can be described thus: Flow cytometry cell cycle analysis (propidium iodide). The settings on record: 1 µM, FACS. Type of series: cell-based, human. From the text: And‐1 is involved in DNA replication in the S‐phase and is required for the S‐phase progression.[15] We assumed that And‐1 inhibitors should be able to inhibit DNA replication by targeting And‐1.
(§3) Supplementary Figure S1. Identification of novel And-1 inhibitors. […]
Molecular weight of each compound was indicated. (C) Flow cytometry

The target in series [3] is T1, And‐1. Nature of the series: Immunoblot of And‐1 expression in IGROV1 cells. The class given is cell-based. The settings on record: read-out: IC50, And‐1 expression.
Source text: as §2, §1
(A) Dependency score of WDHD1/And‐1 analyzed by DepMap. […] (B) Establishment of HEK293T‐And‐1‐Luc and HEK293T‐Luc cells for the high‐throughput screen (HTS). (C) Schematic diagram of quantitative HTS (qHTS) for And‐1 inhibitors. (D) Immunoblot analyses to detect And‐1 expression in IGROV1 cells treated with resveratrol at indicated concentrations. (E) Chemical structures of resveratrol and its three analogs as indicated. (F) Left, immunoblot analyses to detect And‐1 expression in IGROV1 cells treated with And‐1 inhibitors at the indicated concentration. Right, quantification of And‐1 expression shown in the left panel.

Series [4] deals with IGROV1 cells. Nature of the series: Immunofluorescence of CtIP recruitment to micro-irradiation induced DSB sites. The following applies: 1 µM. The class given is cell-based, human. As to the method:
as §3
siAnd-1. S: S phase. (D) Immunofluorescence assay to detect CtIP and γH2AX foci formation after CH3 […]
IGROV1 cells treated with DMSO, 1 […]
to immunostain γH2AX and CtIP. For each experiment, 50 cells were counted and the percentage of cells with co-localization of γH2AX and CtIP foci was determined. Data represent means ± SEM from three independent experiments. (E) HR reporter assay to detect HR repair efficiency in cells treated with CH3. […]

The next series concerns IGROV1 CR xenografts. The series can be described thus: Cisplatin resistant IGROV1 CR xenograft in nude mice. The class given is in vivo, mouse.
On the set-up of series [5]: method as in PMID 15779070. The settings on record: due to rapid metabolism; cited from earlier work.
The mark [6] stands for this setting: reduction of luciferase activity, qHTS, column 1, read-out: IC50 (uM) 1.
Setting [7] is: reduction of luciferase activity, qHTS, column 2.
[8] abbreviates: reduction of luciferase activity, qHTS, average of 1 and 2, read-out: IC50 (uM) average.
Setting [9] is: reduction of luciferase activity, qHTS, column 2, read-out: IC50 (uM) 2.

Each structure is given as a SMILES string. Where a name gives a salt, the structure may show the parent alone. Read-outs that look alike come from different tables or passages of the source.

As for `COc1cc2c(cc1O)CC[C@@H]1[C@@H]2CC[C@]2(C)[C@@H](O)CC[C@@H]12` [2-methoxyestradiol], the DC50 on And‐1 [1] (setting [6]) was determined as 1.67 µM. Moreover, the “IC50 (uM) 2” value on And‐1 [1] (setting [7]) was “inactive”.

The term IC50 denotes the concentration at which inhibition is half-maximal. `CC[C@@]1(O)C(=O)OCc2c1cc1n(c2=O)Cc2cc3ccccc3nc2-1` [(S)-(+)-Camptothecin]: the IC50 at And‐1 [1] (setting [6]) was determined as 0.73 µM. In addition, the “IC50 (uM) 2” value on And‐1 [1] (setting [7]) is “inactive”.

Turning to `CC[n+]1c(/C=C/C=C2/N(C)c3ccccc3C2(C)C)sc2ccccc21` [AC-93253 iodide], the IC50 stood at 0.76 µM on And‐1 [1] (setting [8]), 1.09 µM on And‐1 [1] (setting [6]) and 0.44 µM on And‐1 [1] (setting [9]).

Turning to `Cc1c(-c2ccc(O)cc2)n(Cc2ccc(OCCN3CCCCCC3)cc2)c2ccc(O)cc12` [BZA, bazedoxifene acetate], in the series on IGROV1 CR cells, the “synergy with cisplatin to inhibit cell proliferation” value is “significant synergy with cisplatin”. In addition, the “percentage of cells in the S‐phase” value with IGROV1 cells [2] is reported as “reduced the percentage of cells in the S‐phase”. Besides, at And‐1 [3], the DC50 amounted to 0.32 µM. Besides, in the series on IGROV1 cells [4], the “recruitment of CtIP to DSB sites induced by micro‐irradiation” value is on record as “significantly decreased”. Further, the “expression of And‐1 in tumours (IHC)” value in the series with IGROV1 CR xenografts is listed as “suppressed expression of And‐1 in tumours”. For the same molecule, the “resistant tumour growth, combination with cisplatin vs cisplatin alone” value in the series with IGROV1 CR xenografts (cisplatin 8 mg/kg + CH3 20 mg/kg or BZA 2 mg/kg, intraperitoneal, 3 weeks) is on record as “significantly reduced resistant tumour growth”.

Take `CNc1ccc2oc(C[C@H]3O[C@@]4(CC[C@H]3C)O[C@H]([C@H](C)C(=O)c3ccc[nH]3)[C@H](C)C[C@H]4C)nc2c1C(=O)O` [Calcimycin]: the results for the DC50 at And‐1 [1] (setting [8]), at And‐1 [1] (setting [6]) and on And‐1 [1] (setting [9]) were 8.32 µM, 6.1 µM and 10.5 µM, respectively.

Take `COCCOC(=O)C1=C(C)NC(C)=C(C(=O)OC/C=C/c2ccccc2)C1c1cccc([N+](=O)[O-])c1` (centres unmarked) [Cilnidipine]: the DC50 worked out at 21.1 µM on And‐1 [1] (setting [8]), 22.9 µM on And‐1 [1] (setting [6]) and 19.3 µM on And‐1 [1] (setting [9]).

For the molecule `c1ccc2c(c1)[I+]c1ccccc1-2` [Diphenyleneiodonium chloride], the DC50 at And‐1 [1] (read-out: IC50 (uM) 1) was found to be 0.84 µM; at And‐1 [1] (read-out: IC50 (uM) 2), 0.03 µM; at And‐1 [1] (read-out: IC50 (uM) average) it was 0.43 µM.

On to `Nc1ccn([C@@H]2O[C@H](CO)[C@@H](O)C2(F)F)c(=O)n1` [Gemcitabine hydrochloride], for which, on And‐1 [1] (setting [6]), the DC50 is 0.02 µM. Moreover, on And‐1 [1] (setting [7]), the “IC50 (uM) 2” value is “inactive”.

For `O=C1C(SCCO)=C(SCCO)C(=O)c2ccccc21` [NSC 95397], the IC50 on And‐1 [1] (setting [8]) was 9.42 µM; on And‐1 [1] (setting [6]), 11.2 µM; on And‐1 [1] (setting [9]) it was 7.68 µM.

`C=CCc1cccc(/C=N/NC(=O)CN2CCN(Cc3ccccc3)CC2)c1O` [PAC-1]: the IC50 at And‐1 [1] (setting [8]) turned out to be 21.3 µM; at And‐1 [1] (setting [6]), 18.8 µM; at And‐1 [1] (setting [9]), 23.8 µM.

For `CCN(CC)CCOc1ccc(Nc2ncc3cc(-c4c(Cl)cccc4Cl)c(=O)n(C)c3n2)cc1` [PD-166285 hydrate], the IC50 stood at 3.03 µM at And‐1 [1] (setting [8]), 3.33 µM at And‐1 [1] (setting [6]) and 2.73 µM on And‐1 [1] (setting [9]).

As to `Oc1ccc(/C=C/c2cc(O)cc(O)c2)cc1` [Resveratrol, 3,5,4′‐trihydroxy‐trans‐stilbene], the DC50 at And‐1 [1] (HEK293T‐And‐1‐Luc cells, qHTS, read-out: IC50, reduction of And‐1 levels (screening)) was 18.9 µM; at And‐1 [1] (setting [8]), 18.9 µM; at And‐1 [1] (setting [6]), 14.9 µM; on And‐1 [1] (setting [9]), 22.9 µM; on And‐1 [3] it was 16.7 µM. Besides, in series [5], the oral bioavailability entry is listed as “low oral bioavailability”.

For `C/C=C(/C)C(=O)O[C@H]1C(C)=C2[C@H]([C@@H]1OC(=O)CCCCCCC)[C@@](C)(OC(C)=O)C[C@H](OC(=O)CCC)[C@@]1(O)[C@H]2OC(=O)[C@@]1(C)O` [Thapsigargin], the DC50 is 6.95 µM on And‐1 [1] (setting [8]), 13.3 µM at And‐1 [1] (setting [6]) and 0.63 µM on And‐1 [1] (setting [9]).

In the case of `CC[C@@]1(O)C(=O)OCc2c1cc1n(c2=O)Cc2cc3c(CN(C)C)c(O)ccc3nc2-1` [Topotecan hydrochloride hydrate], the IC50 on And‐1 [1] (setting [6]) came out at 0.61 µM. The “IC50 (uM) 2” value on And‐1 [1] (setting [7]) is “inactive”.
